Assays:
Type in all cases: in vivo
[1] = test system: barnyardgrass (Echinochloa crus-galli); assay: Test G Pre-Emergence Protocol; conditions: Echinochloa crus-galli, pre-emergence, 312 h, evaluated after 13 days; for pest or weed control at 15.625 g/ha: 15.625 g ai/ha; for pest or weed control at 15.625 g/ha / pest or weed control at 250 g/ha: read-out: Barnyardgrass damage rating (100=total damage to plant; 0=no damage to plant); for pest or weed control at 62.5 g/ha: 62.5 g ai/ha, 100=total damage to plant, 0=no damage to plant, read-out: Barnyardgrass damage rating; for pest or weed control at 250 g/ha: 250 g ai/ha
Outline: (§1)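 Test compound in 0.5% Tween 20 acetone/water (50:50) was applied at three rates (15.625, 62.5, 250 g/ha) to soil sown one day earlier. After 13 days plants were scored for injury, where 0 means unaffected and 100 means completely damaged.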

corn (Zea mays) [2] = assay: Test G Pre-Emergence Protocol; conditions: Zea mays, pre-emergence, 312 h, evaluated after 13 days; for plant injury at 15.625 g/ha: 15.625 g ai/ha; for plant injury at 15.625 g/ha / plant injury at 250 g/ha: read-out: Corn damage rating (100=total damage to plant; 0=no damage to plant); for plant injury at 62.5 g/ha: 62.5 g ai/ha, 100=total damage to plant, 0=no damage to plant, read-out: Corn damage rating; for plant injury at 250 g/ha: 250 g ai/ha
Outline: as §1

[3] = test system: giant foxtail (Setaria faberi); assay: Test G Pre-Emergence Protocol; conditions: Setaria faberi, pre-emergence, 312 h, evaluated after 13 days; for pest or weed control at 15.625 g/ha: 15.625 g ai/ha; for pest or weed control at 15.625 g/ha / pest or weed control at 250 g/ha: read-out: Foxtail, Giant damage rating (100=total damage to plant; 0=no damage to plant); for pest or weed control at 62.5 g/ha: 62.5 g ai/ha, 100=total damage to plant, 0=no damage to plant, read-out: Foxtail, Giant damage rating; for pest or weed control at 250 g/ha: 250 g ai/ha
Outline: as §1

[4] = test system: ivy-leaved morning glory (Ipomoea hederacea); assay: Test G Pre-Emergence Protocol; conditions: Ipomoea, pre-emergence, 312 h, evaluated after 13 days; for pest or weed control at 15.625 g/ha: 15.625 g ai/ha; for pest or weed control at 15.625 g/ha / pest or weed control at 250 g/ha: read-out: Morningglory, Ivy-leaved damage rating (100=total damage to plant; 0=no damage to plant); for pest or weed control at 62.5 g/ha: 62.5 g ai/ha, 100=total damage to plant, 0=no damage to plant, read-out: Morningglory, Ivy-leaved damage rating; for pest or weed control at 250 g/ha: 250 g ai/ha
Outline: as §1

[5] = test system: redroot pigweed (Amaranthus retroflexus); assay: Test G Pre-Emergence Protocol; conditions: Amaranthus retroflexus, pre-emergence, 312 h, evaluated after 13 days; for pest or weed control at 15.625 g/ha: 15.625 g ai/ha; for pest or weed control at 15.625 g/ha / pest or weed control at 250 g/ha: read-out: Pigweed, Redroot damage rating (100=total damage to plant; 0=no damage to plant); for pest or weed control at 62.5 g/ha: 62.5 g ai/ha, 100=total damage to plant, 0=no damage to plant, read-out: Pigweed, Redroot damage rating; for pest or weed control at 250 g/ha: 250 g ai/ha
Outline: as §1

[6] = test system: velvetleaf (Abutilon theophrasti); assay: Test G Pre-Emergence Protocol; conditions: Abutilon theophrasti, pre-emergence, 312 h, evaluated after 13 days; for pest or weed control at 15.625 g/ha: 15.625 g ai/ha; for pest or weed control at 15.625 g/ha / pest or weed control at 250 g/ha: read-out: Velvetleaf damage rating (100=total damage to plant; 0=no damage to plant); for pest or weed control at 62.5 g/ha: 62.5 g ai/ha, 100=total damage to plant, 0=no damage to plant, read-out: Velvetleaf damage rating; for pest or weed control at 250 g/ha: 250 g ai/ha
Outline: as §1

[7] = test system: barnyardgrass (Echinochloa crus-galli); assay: Test G Post-Emergence Protocol; conditions: Echinochloa crus-galli, post-emergence, 312 h, read-out: Barnyardgrass damage rating; for pest or weed control at 15.625 g/ha: 15.625 g ai/ha, evaluated after 13 days (100=total damage to plant; 0=no damage to plant); for pest or weed control at 62.5 g/ha: 62.5 g ai/ha; for pest or weed control at 62.5 g/ha / pest or weed control at 250 g/ha: evaluated after 13 days, 100=total damage to plant, 0=no damage to plant; for pest or weed control at 250 g/ha: 250 g ai/ha
Outline: (§2)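 Seedlings grown 8 days in soil in a glasshouse (24/16 °C day/night, 14 h light, 65% humidity) were sprayed post-emergence with compound in acetone/water 50:50 plus 0.5% Tween 20 at 15.625, 62.5 or 250 g/ha. Damage was scored after 13 days on a 0–100 scale (100 = total damage).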

corn (Zea mays) [8] = assay: Test G Post-Emergence Protocol; conditions: Zea mays, post-emergence, 312 h, read-out: Corn damage rating; for plant injury at 15.625 g/ha: 15.625 g ai/ha, evaluated after 13 days (100=total damage to plant; 0=no damage to plant); for plant injury at 62.5 g/ha: 62.5 g ai/ha; for plant injury at 62.5 g/ha / plant injury at 250 g/ha: evaluated after 13 days, 100=total damage to plant, 0=no damage to plant; for plant injury at 250 g/ha: 250 g ai/ha
Outline: as §2

[9] = test system: giant foxtail (Setaria faberi); assay: Test G Post-Emergence Protocol; conditions: Setaria faberi, post-emergence, 312 h, read-out: Foxtail, Giant damage rating; for pest or weed control at 15.625 g/ha: 15.625 g ai/ha, evaluated after 13 days (100=total damage to plant; 0=no damage to plant); for pest or weed control at 62.5 g/ha: 62.5 g ai/ha; for pest or weed control at 62.5 g/ha / pest or weed control at 250 g/ha: evaluated after 13 days, 100=total damage to plant, 0=no damage to plant; for pest or weed control at 250 g/ha: 250 g ai/ha
Outline: as §2

[10] = test system: ivy-leaved morning glory (Ipomoea hederacea); assay: Test G Post-Emergence Protocol; conditions: Ipomoea, post-emergence, 312 h, read-out: Morningglory, Ivy-leaved damage rating; for pest or weed control at 15.625 g/ha: 15.625 g ai/ha, evaluated after 13 days (100=total damage to plant; 0=no damage to plant); for pest or weed control at 62.5 g/ha: 62.5 g ai/ha; for pest or weed control at 62.5 g/ha / pest or weed control at 250 g/ha: evaluated after 13 days, 100=total damage to plant, 0=no damage to plant; for pest or weed control at 250 g/ha: 250 g ai/ha
Outline: as §2

[11] = test system: redroot pigweed (Amaranthus retroflexus); assay: Test G Post-Emergence Protocol; conditions: Amaranthus retroflexus, post-emergence, 312 h, read-out: Pigweed, Redroot damage rating; for pest or weed control at 15.625 g/ha: 15.625 g ai/ha, evaluated after 13 days (100=total damage to plant; 0=no damage to plant); for pest or weed control at 62.5 g/ha: 62.5 g ai/ha; for pest or weed control at 62.5 g/ha / pest or weed control at 250 g/ha: evaluated after 13 days, 100=total damage to plant, 0=no damage to plant; for pest or weed control at 250 g/ha: 250 g ai/ha
Outline: as §2

[12] = test system: velvetleaf (Abutilon theophrasti); assay: Test G Post-Emergence Protocol; conditions: Abutilon theophrasti, post-emergence, 312 h, read-out: Velvetleaf damage rating; for pest or weed control at 15.625 g/ha: 15.625 g ai/ha, evaluated after 13 days (100=total damage to plant; 0=no damage to plant); for pest or weed control at 62.5 g/ha: 62.5 g ai/ha; for pest or weed control at 62.5 g/ha / pest or weed control at 250 g/ha: evaluated after 13 days, 100=total damage to plant, 0=no damage to plant; for pest or weed control at 250 g/ha: 250 g ai/ha
Outline: as §2

| SMILES | pest or weed control at 15.625 g/ha [1] [%] | pest or weed control at 62.5 g/ha [1] [%] | pest or weed control at 250 g/ha [1] [%] | plant injury at 15.625 g/ha (corn (Zea mays) [2]) [%] | plant injury at 62.5 g/ha (corn (Zea mays) [2]) [%] | plant injury at 250 g/ha (corn (Zea mays) [2]) [%] | pest or weed control at 15.625 g/ha [3] [%] | pest or weed control at 62.5 g/ha [3] [%] | pest or weed control at 250 g/ha [3] [%] | pest or weed control at 15.625 g/ha [4] [%] | pest or weed control at 62.5 g/ha [4] [%] | pest or weed control at 250 g/ha [4] [%] | pest or weed control at 15.625 g/ha [5] [%] | pest or weed control at 62.5 g/ha [5] [%] | pest or weed control at 250 g/ha [5] [%] | pest or weed control at 15.625 g/ha [6] [%] | pest or weed control at 62.5 g/ha [6] [%] | pest or weed control at 250 g/ha [6] [%] | pest or weed control at 15.625 g/ha [7] [%] | pest or weed control at 62.5 g/ha [7] [%] | also measured |
| --- | --- | --- | --- | --- | --- | --- | --- | --- | --- | --- | --- | --- | --- | --- | --- | --- | --- | --- | --- | --- | --- |
| CCOc1ccc(C2CN(C)C(=O)C2C(=O)Nc2cccc(F)c2F)cc1F (stereo not drawn) [Compound 1717] | 0 | 40 | 90 | 0 | 0 | 0 | 60 | 90 | 90 | 0 | 0 | 0 | 0 | 10 | 20 | 0 | 10 | 0 | 0 | 60 | pest or weed control at 250 g/ha [7]: 70%; plant injury at 15.625 g/ha (corn (Zea mays) [8]): 0%; plant injury at 62.5 g/ha (corn (Zea mays) [8]): 0%; plant injury at 250 g/ha (corn (Zea mays) [8]): 10%; pest or weed control at 15.625 g/ha [9]: 30%; pest or weed control at 62.5 g/ha [9]: 70%; pest or weed control at 250 g/ha [9]: 80%; pest or weed control at 15.625 g/ha [10]: 0%; pest or weed control at 62.5 g/ha [10]: 0%; pest or weed control at 250 g/ha [10]: 0%; pest or weed control at 15.625 g/ha [11]: 0%; pest or weed control at 62.5 g/ha [11]: 0%; pest or weed control at 250 g/ha [11]: 0%; pest or weed control at 15.625 g/ha [12]: 0%; pest or weed control at 62.5 g/ha [12]: 0%; pest or weed control at 250 g/ha [12]: 0% |
| CN1C[C@H](c2cccc(C(F)(F)F)c2)[C@@H](C(=O)Nc2cnccc2[S+](C)[O-])C1=O (mixture of isomers) [Compound 1752] | 0 | 0 | 20 | 0 | 0 | 0 | 0 | 0 | 20 | 0 | 0 | 0 | 0 | 0 | 0 | 0 | 0 | 0 | 0 | 0 | pest or weed control at 250 g/ha [7]: 0%; plant injury at 15.625 g/ha (corn (Zea mays) [8]): 0%; plant injury at 62.5 g/ha (corn (Zea mays) [8]): 0%; plant injury at 250 g/ha (corn (Zea mays) [8]): 0%; pest or weed control at 15.625 g/ha [9]: 0%; pest or weed control at 62.5 g/ha [9]: 0%; pest or weed control at 250 g/ha [9]: 0%; pest or weed control at 15.625 g/ha [10]: 0%; pest or weed control at 62.5 g/ha [10]: 0%; pest or weed control at 250 g/ha [10]: 0%; pest or weed control at 15.625 g/ha [11]: 0%; pest or weed control at 62.5 g/ha [11]: 0%; pest or weed control at 250 g/ha [11]: 0%; pest or weed control at 15.625 g/ha [12]: 0%; pest or weed control at 62.5 g/ha [12]: 0%; pest or weed control at 250 g/ha [12]: 0% |
